Measurements from US12448388B2, “PRMT5 inhibitors and uses thereof” (Gilead Sciences, Inc., priority 2023, dated 2025).

Test system: HCT116 MTAP-deleted cell lines
Assay: Cell viability assay (CellTiter-Glo, 7 days), HCT116 MTAP-deleted
Type: cell-based
Conditions: Homo sapiens, HCT-116; cell viability assay, HCT116 MTAP-deleted; class symbols; read-out: CC50
Method in brief: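 CC50 values come from 7-day CellTiter-Glo viability measurements on cells exposed to a dose range of PRMT5 inhibitors dispensed from DMSO stocks.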

SMILES	CC50 [nM]
Nc1nc2cc(F)c(C(=O)N3CC4CCC(O4)C3c3ccc(C(F)(F)F)cn3)cc2n2cncc12 (stereo not drawn) [Ff-511, (4-amino-7-fluoroimidazo[1,5-a]quinoxalin-8-yl)(2-(5-(trifluoromethyl)pyridin-2-yl)-8-oxa-3-azabicyclo[3.2.1]octan-3-yl)methanone]	100 to 1000
Nc1nc2cc(F)c(C(=O)N3CC4CCC(C4)C3c3ccc(C(F)(F)F)cn3)cc2n2cncc12 (stereo not drawn) [Ff-512, (4-amino-7-fluoroimidazo[1,5-a]quinoxalin-8-yl)(2-(5-(trifluoromethyl)pyridin-2-yl)-3-azabicyclo[3.2.1]octan-3-yl)methanone]	100 to 1000
CC1(C)CN(C(=O)c2cc3c(cc2F)nc(N)c2cncn23)C(c2ccc(C(F)(F)F)cn2)CO1 (stereo not drawn) [Ff-513, (4-amino-7-fluoroimidazo[1,5-a]quinoxalin-8-yl)(2,2-dimethyl-5-(5-(trifluoromethyl)pyridin-2-yl)morpholino)methanone]	< 100
CN(C(=O)c1cc2c(cc1F)nc(N)c1cncn12)[C@@H]1COc2cc(C#CC3(C)CC3)ccc21 [Ff-514, (S)-4-amino-7-fluoro-N-methyl-N-(6-((1-methylcyclopropyl)ethynyl)-2,3-dihydrobenzofuran-3-yl)imidazo[1,5-a]quinoxaline-8-carboxamide]	100 to 1000
CN(C(=O)c1cc2c(cc1F)nc(N)c1cncn12)[C@@H]1COc2cc(C#CC(F)(F)F)ccc21 [Ff-515, (S)-4-amino-7-fluoro-N-methyl-N-(6-(3,3,3-trifluoroprop-1-yn-1-yl)-2,3-dihydrobenzofuran-3-yl)imidazo[1,5-a]quinoxaline-8-carboxamide]	100 to 1000
COC1(C#Cc2ccc3c(c2)OC[C@H]3N(C)C(=O)c2cc3c(cc2F)nc(N)c2cncn23)CCC1 [Ff-517, (S)-4-amino-7-fluoro-N-(6-((1-methoxycyclobutyl)ethynyl)-2,3-dihydrobenzofuran-3-yl)-N-methylimidazo[1,5-a]quinoxaline-8-carboxamide]	100 to 1000
CN(C(=O)c1ccc2nc(N)c3cncn3c2c1)[C@@H]1COc2cc(C#CC3(C)COC3)ccc21 [Ff-518, (S)-4-amino-N-methyl-N-(6-((3-methyloxetan-3-yl)ethynyl)-2,3-dihydrobenzofuran-3-yl)imidazo[1,5-a]quinoxaline-8-carboxamide]	< 100
COC1(C#Cc2ccc3c(c2)OC[C@H]3N(C)C(=O)c2ccc3nc(N)c4cncn4c3c2)CCC1 [Ff-519, (S)-4-amino-N-(6-((1-methoxycyclobutyl)ethynyl)-2,3-dihydrobenzofuran-3-yl)-N-methylimidazo[1,5-a]quinoxaline-8-carboxamide]	100 to 1000
CN(C(=O)c1ccc2nc(N)c3cncn3c2c1)[C@@H]1COc2cc(C#CC3(CF)CC3)ccc21 [Ff-520, (S)-4-amino-N-(6-((1-(fluoromethyl)cyclopropyl)ethynyl)-2,3-dihydrobenzofuran-3-yl)-N-methylimidazo[1,5-a]quinoxaline-8-carboxamide]	100 to 1000
CN(C(=O)c1ccc2nc(N)c3cncn3c2c1)[C@@H]1COc2cc(C#CC3(C(F)F)CC3)ccc21 [Ff-521, (S)-4-amino-N-(6-((1-(difluoromethyl)cyclopropyl)ethynyl)-2,3-dihydrobenzofuran-3-yl)-N-methylimidazo[1,5-a]quinoxaline-8-carboxamide]	100 to 1000
CN(C(=O)c1cc2c(cc1F)nc(N)c1cncn12)[C@@H]1COc2cc(C#CC3(C(F)(F)F)CC3)ccc21 [Ff-522, (S)-4-amino-7-fluoro-N-methyl-N-(6-((1-(trifluoromethyl)cyclopropyl)ethynyl)-2,3-dihydrobenzofuran-3-yl)imidazo[1,5-a]quinoxaline-8-carboxamide]	100 to 1000
CN(C(=O)c1cc2c(cc1F)nc(N)c1cncn12)[C@@H]1COc2cc(C#CC34CCC(CC3)OC4)ccc21 [Ff-523, (S)—N-(6-((2-oxabicyclo[2.2.2]octan-4-yl)ethynyl)-2,3-dihydrobenzofuran-3-yl)-4-amino-7-fluoro-N-methylimidazo[1,5-a]quinoxaline-8-carboxamide]	100 to 1000
CN(C(=O)c1cc2c(cc1F)nc(N)c1cncn12)[C@@H]1COc2cc(C#CC3C4COCC34)ccc21 (stereo partly drawn) [Ff-524, N-((3S)-6-((3-oxabicyclo[3.1.0]hexan-6-yl)ethynyl)-2,3-dihydrobenzofuran-3-yl)-4-amino-7-fluoro-N-methylimidazo[1,5-a]quinoxaline-8-carboxamide]	< 100
CN(C(=O)c1cc2c(cc1F)nc(N)c1cncn12)[C@@H]1COc2cc(C#CC3CC(F)(F)C3)ccc21 [Ff-525, (S)-4-amino-N-(6-((3,3-difluorocyclobutyl)ethynyl)-2,3-dihydrobenzofuran-3-yl)-7-fluoro-N-methylimidazo[1,5-a]quinoxaline-8-carboxamide]	100 to 1000
CN(C(=O)c1ccc2nc(N)c3cncn3c2c1)[C@@H]1COc2cc(C#CC(C)(C)S(C)(=O)=O)ccc21 [Ff-526, (S)-4-amino-N-methyl-N-(6-(3-methyl-3-(methylsulfonyl)but-1-yn-1-yl)-2,3-dihydrobenzofuran-3-yl)imidazo[1,5-a]quinoxaline-8-carboxamide]	100 to 1000
CN(C(=O)c1ccc2nc(N)c3cncn3c2c1)[C@@H]1COc2cc(C#CC3(O)COC3)ccc21 [Ff-527, (S)-4-amino-N-(6-((3-hydroxyoxetan-3-yl)ethynyl)-2,3-dihydrobenzofuran-3-yl)-N-methylimidazo[1,5-a]quinoxaline-8-carboxamide]	100 to 1000
CN(C(=O)c1ccc2nc(N)c3cncn3c2c1)[C@@H]1COc2cc(C#CC34CCC(CC3)O4)ccc21 [Ff-528, (S)—N-(6-((7-oxabicyclo[2.2.1]heptan-1-yl)ethynyl)-2,3-dihydrobenzofuran-3-yl)-4-amino-N-methylimidazo[1,5-a]quinoxaline-8-carboxamide]	100 to 1000
CC(=O)N1CC(C#Cc2ccc3c(c2)OC[C@H]3N(C)C(=O)c2ccc3nc(N)c4cncn4c3c2)C1 [Ff-529]	100 to 1000
CN(C(=O)c1cc2c(cc1F)nc(N)c1cncn12)[C@@H]1COCc2cc(C#CC3(C)COC3)ccc21 [Ff-530, (S)-4-amino-7-fluoro-N-methyl-N-(7-((3-methyloxetan-3-yl)ethynyl)isochroman-4-yl)imidazo[1,5-a]quinoxaline-8-carboxamide]	< 100
COC1(C#Cc2ccc3c(c2)OC[C@H]3N(C)C(=O)c2ccc3nc(N)c4cncn4c3c2)CC1 [Ff-531, (S)-4-amino-N-(6-((1-methoxycyclopropyl)ethynyl)-2,3-dihydrobenzofuran-3-yl)-N-methylimidazo[1,5-a]quinoxaline-8-carboxamide]	100 to 1000
C[C@H](c1ccc(C(F)(F)F)cn1)N(C)C(=O)c1cc2c(cc1F)nc(N)c1cncn12 [Ff-532, (R)-4-amino-7-fluoro-N-methyl-N-(1-(5-(trifluoromethyl)pyridin-2-yl)ethyl)imidazo[1,5-a]quinoxaline-8-carboxamide]	< 100
C[C@@H](c1ccc(C(F)(F)F)cc1F)N(C)C(=O)c1cc2c(cc1F)nc(N)c1cncn12 [Ff-533, (S)-4-amino-7-fluoro-N-(1-(2-fluoro-4-(trifluoromethyl)phenyl)ethyl)-N-methylimidazo[1,5-a]quinoxaline-8-carboxamide]	100 to 1000
C[C@H](c1ccc(C(F)(F)F)cc1F)N(C)C(=O)c1cc2c(cc1F)nc(N)c1cncn12 [Ff-534, (R)-4-amino-7-fluoro-N-(1-(2-fluoro-4-(trifluoromethyl)phenyl)ethyl)-N-methylimidazo[1,5-a]quinoxaline-8-carboxamide]	< 100
COc1cc(C(F)(F)F)ccc1[C@@H](C)N(C)C(=O)c1cc2c(cc1F)nc(N)c1cncn12 [Ff-535, (R)-4-amino-7-fluoro-N-(1-(2-methoxy-4-(trifluoromethyl)phenyl)ethyl)-N-methylimidazo[1,5-a]quinoxaline-8-carboxamide]	100 to 1000
COc1cc(C(F)(F)F)ccc1[C@H](C)N(C)C(=O)c1cc2c(cc1F)nc(N)c1cncn12 [Ff-536, (S)-4-amino-7-fluoro-N-(1-(2-methoxy-4-(trifluoromethyl)phenyl)ethyl)-N-methylimidazo[1,5-a]quinoxaline-8-carboxamide]	100 to 1000
C[C@H](c1ncc(C(F)(F)F)cc1F)N(C)C(=O)c1cc2c(cc1F)nc(N)c1cncn12 [Ff-537, (R)-4-amino-7-fluoro-N-(1-(3-fluoro-5-(trifluoromethyl)pyridin-2-yl)ethyl)-N-methylimidazo[1,5-a]quinoxaline-8-carboxamide]	< 100
CCN(C(=O)c1cc2c(cc1F)nc(N)c1cncn12)[C@H](C)c1ncc(C(F)(F)F)cc1F [Ff-538, (R)-4-amino-N-ethyl-7-fluoro-N-(1-(3-fluoro-5-(trifluoromethyl)pyridin-2-yl)ethyl)imidazo[1,5-a]quinoxaline-8-carboxamide]	< 100
Nc1nc2cc(F)c(C(=O)N3CCO[C@@H]4Cc5cc(C(F)(F)F)cc(F)c5[C@@H]43)cc2n2cncc12 [Ff-539, (4-amino-7-fluoroimidazo[1,5-a]quinoxalin-8-yl)((4aS,9aR)-5-fluoro-7-(trifluoromethyl)-2,3,9,9a-tetrahydroindeno[2,1-b][1,4]oxazin-4(4aH)-yl)methanone]	< 100
Nc1nc2cnc(C(=O)N3CCO[C@@H]4Cc5cc(C(F)(F)F)cc(F)c5[C@@H]43)cc2n2cncc12 [Ff-540, (4-aminoimidazo[1,5-a]pyrido[3,4-e]pyrazin-8-yl)((4aS,9aR)-5-fluoro-7-(trifluoromethyl)-2,3,9,9a-tetrahydroindeno[2,1-b][1,4]oxazin-4(4aH)-yl)methanone]	100 to 1000
CN(C(=O)c1cc2c(cc1F)nc(N)c1cncn12)[C@H](CC1CC1)c1ccc(C(F)(F)F)cn1 [Ff-541, (R)-4-amino-N-(2-cyclopropyl-1-(5-(trifluoromethyl)pyridin-2-yl)ethyl)-7-fluoro-N-methylimidazo[1,5-a]quinoxaline-8-carboxamide]	100 to 1000
